Source: patent US12060347B2 (BRISTOL-MYERS SQUIBB COMPANY, priority 2016, dated 2024)

Target: T1, human PAR4 (Homo sapiens, UniProt Q96RI0)
T1 construct: expressed in transfected cells; host or cells: HEK293 PAR4 Clone 1.2A (BMS Arctic ID 383940)
T1 sequence (Q96RI0 18-385): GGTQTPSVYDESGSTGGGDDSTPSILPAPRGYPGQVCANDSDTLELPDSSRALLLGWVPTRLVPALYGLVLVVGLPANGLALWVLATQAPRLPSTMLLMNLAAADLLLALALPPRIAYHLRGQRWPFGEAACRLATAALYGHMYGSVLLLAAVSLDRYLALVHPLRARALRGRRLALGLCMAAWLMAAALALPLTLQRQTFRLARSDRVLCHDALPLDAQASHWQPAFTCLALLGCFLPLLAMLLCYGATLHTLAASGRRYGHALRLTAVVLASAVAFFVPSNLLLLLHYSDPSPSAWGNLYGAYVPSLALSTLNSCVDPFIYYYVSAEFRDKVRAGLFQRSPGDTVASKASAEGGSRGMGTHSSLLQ
Assay: PAR4 FLIPR assay: antagonism of agonist-peptide-induced calcium mobilization in PAR4-expressing HEK293 cells
Assay type: cell-based
Details: H-Ala-Phe(4-F)-[…]NH2-induced intracellular calcium mobilization, 11-point curves

Row | Structure (SMILES) | IC50
1 | COc1cnc2c(-c3nc4cc(F)c(OC[C@@H](C)OC(=O)Nc5ccc(C(C)(C)O)nc5)cc4s3)cc(C)cc2n1 [Example 498, (R)-1-((5-fluoro-2-(2-methoxy-7-methylquinoxalin-5-yl)benzo[d]thiazol-6-yl)oxy)propan-2-yl (6-(2-hydroxypropan-2-yl)pyridin-3-yl)carbamate] | 1.3 nM
2 | COc1cnc2c(-c3nc4c(Cl)c(F)c(OCCOC(=O)Nc5ccns5)cc4s3)cc(C)cc2n1 [Example 621, 2-((4-chloro-5-fluoro-2-(2-methoxy-7-methylquinoxalin-5-yl)benzo[d]thiazol-6-yl)oxy)ethyl isothiazol-5-ylcarbamate] | 8 nM
3 | COCc1cnc2c(-c3nc4cc(OC)c(OC)cc4s3)cc(C)cc2n1 [Example 311, 5,6-dimethoxy-2-(2-(methoxymethyl)-7-methylquinoxalin-5-yl)benzo[d]thiazole] | 93 nM
4 | COc1cnc2c(-c3nc4cc(F)c(O[C@@H](C)[C@@H](C)OC(=O)Nc5ccc(C)nc5)nc4s3)cc(C)cc2n1 [Example 710, (2R,3S)-3-((6-fluoro-2-(2-methoxy-7-methylquinoxalin-5-yl)thiazolo[5,4-b]pyridin-5-yl)oxy)butan-2-yl (6-methylpyridin-3-yl)carbamate] | 1.8 nM
5 | COc1ccc(NC(=O)OC[C@H](C)Oc2cc3sc(-c4cc(C)cc5nc(OC)cnc45)nc3c(Cl)c2F)cn1 (single isomer, unassigned) [Example 382] | 1.3 nM
6 | COc1cnc2c(-c3nc4cc(F)c(O[C@@H](C)[C@@H](C)OC(N)=O)cc4s3)cc(C)cc2n1 [Example 524, (2R,3S)-3-((5-fluoro-2-(2-methoxy-7-methylquinoxalin-5-yl)benzo[d]thiazol-6-yl)oxy) butan-2-yl carbamate] | 84 nM
7 | COc1cnc2c(-c3nc4cc(F)c(OC[C@@H](C)OC(=O)Nc5cnc(O[C@@H](C)CO)nc5)cc4s3)cc(C)cc2n1 [Example 558, (R)-1-((5-fluoro-2-(2-methoxy-7-methylquinoxalin-5-yl)benzo[d]thiazol-6-yl)oxy)propan-2-yl (2-(((S)-1-hydroxypropan-2-yl)oxy)pyrimidin-5-yl)carbamate] | 1.5 nM
8 | COc1cc(C)c2nc(-c3cc(C)cc4nc(C(F)(F)OC)cnc34)sc2c1 [Example 186, 2-(2-(difluoro(methoxy)methyl)-7-methylquinoxalin-5-yl)-6-methoxy-4-methylbenzo[d]thiazole] | 17 nM
9 | COc1cnc2c(-c3nc4c(C)c(F)c(OC)cc4s3)cc(C)cc2n1 [Example 294, 5-fluoro-6-methoxy-2-(2-methoxy-7-methylquinoxalin-5-yl)-4-methylbenzo[d]thiazole] | 5.2 nM
10 | COc1ccc2c(-c3cc4ccccc4o3)nc(C)cc2n1 [Example 130, 5-(benzofuran-2-yl)-2-methoxy-7-methyl-1,6-naphthyridine] | 460 nM
11 | Cc1cc(-c2cc3ccccc3o2)c2ncc(-c3ccoc3)nc2c1 [Example 135, 5-(benzofuran-2-yl)-2-(furan-3-yl)-7-methylquinoxaline] | 2200 nM

The remaining compounds from weak to strong by IC50, led by results:

Row | IC50 | Structure (SMILES)
12 | 220 nM | Cc1cc(-c2nc3ncccc3s2)c2ncc(OC(F)F)nc2c1 [Example 9, 2-(2-(difluoromethoxy)-7-methylquinoxalin-5-yl)thiazolo[4,5-b]pyridine]
13 | 170 nM | COc1cnc2c(-c3nc4c(C)cc(OCCNS(=O)(=O)c5ccc(F)cc5)cc4s3)cc(CCO)cc2n1 [Example 237, 4-fluoro-N-(2-((2-(7-(2-hydroxyethyl)-2-methoxyquinoxalin-5-yl)-4-methylbenzo[d]thiazol-6-yl)oxy)ethyl)benzenesulfonamide]
14 | 140 nM | COc1cnc2c(-c3nc4c(C)c(F)c(OC)cc4s3)cc(C(O)C3CC3)cc2n1 (stereo not drawn) [Example 246, Cyclopropyl(8-(5-fluoro-6-methoxy-4-methylbenzo[d]thiazol-2-yl)-3-methoxyquinoxalin-6-yl)methanol]
15 | 30 nM | CNC(=O)c1cnc2c(-c3nc4cc(F)c(O[C@@H](C)[C@@H](C)OC(=O)Nc5cnc(C)nc5)cc4s3)cc(C)cc2n1 [Example 614, (2R,3S)-3-((5-fluoro-2-(7-methyl-2-(methylcarbamoyl)quinoxalin-5-yl)benzo[d]thiazol-6-yl)oxy)butan-2-yl (2-methylpyrimidin-5-yl)carbamate]
16 | 23 nM | COc1cnc2c(-c3cc4ccccc4o3)cc(C)cc2n1 [Example 175, 5-(benzofuran-2-yl)-2-methoxy-7-methylquinoxaline]
17 | 15 nM | COc1cnc2c(-c3nc4cc(F)c(OC[C@@H](C)OC(=O)Nc5ccnc(CO)c5)cc4s3)cc(C)cc2n1 [Example 495, (R)-1-((5-fluoro-2-(2-methoxy-7-methylquinoxalin-5-yl)benzo[d]thiazol-6-yl)oxy)propan-2-yl (2-(hydroxymethyl)pyridin-4-yl)carbamate]
18 | 6.5 nM | COc1cnc2c(-c3nc4cc(F)c(O[C@@H](C)[C@@H](C)OC(=O)Nc5cnc(CO)nc5)cc4s3)cc(Cl)cc2c1 [Example 539, (2R,3S)-3-((2-(6-chloro-3-methoxyquinolin-8-yl)-5-fluorobenzo[d]thiazol-6-yl)oxy)butan-2-yl (2-(hydroxymethyl)pyrimidin-5-yl)carbamate]
19 | 2.5 nM | COCc1cnc2c(-c3nc4c(C#N)cc(OC)cc4s3)cc(C)cc2n1 [Example 103, 6-methoxy-2-(2-(methoxymethyl)-7-methylquinoxalin-5-yl)benzo[d]thiazole-4-carbonitrile]
20 | 1.6 nM | COc1cnc2c(-c3nc4cc(F)c(O[C@@H](C)[C@@H](C)OC(=O)Nc5ccnc(CCO)c5)nc4s3)cc(C)cc2n1 [Example 717, (2R,3S)-3-((6-fluoro-2-(2-methoxy-7-methylquinoxalin-5-yl)thiazolo[5,4-b]pyridin-5-yl)oxy)butan-2-yl (2-(2-hydroxyethyl)pyridin-4-yl)carbamate]
21 | 1.5 nM | CNC(=O)c1ccc(NC(=O)O[C@H](C)[C@H](C)Oc2cc3sc(-c4cc(C)cc5nc(OC)cnc45)nc3cc2F)cn1 [Example 436, (2R,3S)-3-((5-fluoro-2-(2-methoxy-7-methylquinoxalin-5-yl)benzo[d]thiazol-6-yl)oxy)butan-2-yl (6-(methylcarbamoyl)pyridin-3-yl)carbamate]
22 | 0.7 nM | COc1cnc2c(-c3nc4cc(F)c(O[C@@H](C)[C@@H](C)OC(=O)Nc5ccc(C#N)nc5)cc4s3)cc(C#N)cc2n1 [Example 828, (2R,3S)-3-((2-(7-cyano-2-methoxyquinoxalin-5-yl)-5-fluorobenzo[d]thiazol-6-yl)oxy)butan-2-yl (6-cyanopyridin-3-yl)carbamate]
23 | 0.7 nM | COc1cnc2c(-c3nc4c(Cl)c(F)c(OCCOC(=O)Nc5cncc(F)c5)cc4s3)cc(C)cc2n1 [Example 337, 2((4-chloro-5-fluoro-2-(2-methoxy-7-methylquinoxalin-5-yl)benzo[d]thiazol-6-yl)oxy)ethyl (5-fluoropyridin-3-yl)carbamate]
24 | 0.7 nM | COc1cnc2c(-c3nc4cc(F)c(OC[C@@H](C)OC(=O)Nc5ccc6[nH]c(=O)oc6c5)nc4s3)cc(C)cc2n1 [Example 683, (R)-1-((6-fluoro-2-(2-methoxy-7-methylquinoxalin-5-yl)thiazolo[5,4-b]pyridin-5-yl)oxy) propan-2-yl (2-oxo-2,3-dihydrobenzo[d]oxazol-6-yl)carbamate]
